Patent US20240360153A1 (Regeneron Pharmaceuticals, Inc., priority 2023, published 2024)
Where “and” joins values, the source holds several entries; their conditions need not be identical. Identical values can stand only once.

System: S6K1 (Thr389) phosphorylation (mTORC1 activity) in FKBP12 knock-out 293T cells
Assay: Inhibition of S6K1 (Thr389) phosphorylation in FKBP12 knock-out 293T cells (ELISA)
Assay type: cell-based, human
Method in brief: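 CRISPR-generated FKBP12 knock-out HEK293T cells, alongside wild-type, were treated in duplicate for 2 hours at 37 °C with an 8–11-point dose range (0.001 pM–10 μM). Phospho-S6K1 Thr389 quantified by ELISA as an mTORC1 activity read-out, with DMSO as negative control.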

| Structure (SMILES) | fold less potent compared with RAD001 (FKBP12 knock-out cells, at similar level of inhibition) | inhibition at 10 µM (Homo sapiens, HEK-293T, FKBP12 knock-out cells, 10 μM (highest tested concentration)) [%] | selectivity for FKBP12 compared with RAD001 (in words) (wild-type versus FKBP12 knock-out cells) | S6K1 inhibition achieved (FKBP12 knock-out 293T cells, concentration not given) | concentration achieving 30% inhibition of S6K1 (Thr389) phosphorylation (FKBP12 knock-out cells) [nM] | concentration achieving ~40% of S6K1 (Thr389) inhibition (FKBP12 knock-out cells) [nM] | inhibition of S6K1 (Thr389) phosphorylation in the absence of FKBP12 (in words) (FKBP12 knock-out cells) | inhibition of S6K1 phosphorylation (FKBP12 knock-out cells, 100 nM, 0.1 µM) [%] | inhibition of S6K1 (Thr389) phosphorylation (FKBP12 knock-out cells, 10 μM (highest tested concentration), 10 µM) | inhibition at 0.1 µM (Homo sapiens, HEK-293T, FKBP12 knock-out cells, 100 nM) [%] | IC50 (Homo sapiens, HEK-293T, FKBP12 knock-out 293T cells) [nM] |
| --- | --- | --- | --- | --- | --- | --- | --- | --- | --- | --- | --- |
| COCCN(c1ccccc1)C1C[C@@H]2CC[C@@H](C)[C@@](O)(O2)C(=O)C(=O)N2CCCC[C@H]2C(=O)OC([C@H](C)CC2CC[C@@H](O)C(OC)C2)CC[C@H](C)/C=C(\C)C(O)C(OC)C(=O)[C@H](C)C[C@H](C)/C=C/C=C/C=C/1C (stereo partly drawn) [Compound 69, (3S,6S,7E,9R,10R,12R,14S,15E,17E,19E,23S,26R,27R,34aS)-9,27-dihydroxy-3-((R)-1-((1S,3R,4R)-4-hydroxy-3-methoxycyclohexyl)propan-2-yl)-10-methoxy-21-((2-methoxyethyl)(phenyl)amino)-6,8,12,14,20,26-hexamethyl-5,6,9,10,12,13,14,21,22,23,24,25,26,27,32,33,34,34a-octadecahydro-3H-23,27-epoxypyrido[2,1-c][1]oxa[4]azacyclohentriacontine-1,11,28,29(4H,31H)-tetraone] | about 3000 fold | ~30 | more selective than RAD001 |  |  |  |  |  |  |  |  |
| CO[C@H]1C[C@@H]2CC[C@@H](C)[C@@](O)(O2)C(=O)C(=O)N2CCCC[C@H]2C(=O)O[C@H]([C@H](C)C[C@@H]2CC[C@@H](OCCO)[C@H](OC)C2)CC(=O)[C@H](C)/C=C(\C)[C@@H](O)[C@@H](OC)C(=O)[C@H](C)C[C@H](C)/C=C/C=C/C=C/1C [RAD001, everolimus, reference compound] |  |  |  | about 50% | ~3.0 | 447 | inhibited the mTORC1 signaling in a dose dependent manner | ~35 | ~80% and ~70% and 42% and 45% and 58% and 73.5% and 62% and ~60% | ~30 | 31.3 |
